The results in this text go back to patent publication US20210181183A1, “METHODS FOR DETERMINING SELECTIVITY OF TEST COMPOUNDS” (CEMM - FORSCHUNGSZENTRUM FÜR MOLEKULARE MEDIZIN GmBH, priority 2017, published 2021).

The subject of assay [1] is CD20+ cells over CD20- cells of a B-cell lymphoblastic lymphoma patient. The experiment in a line: ex vivo selectivity of compounds to kill cancerous versus non-cancerous cells, pleural effusion of B-LBL patient (Example 7). It is filed as cell-based, human. As to conditions: fraction of live cancerous cells of live total cells relative to DMSO control, <1 = selectively kills cancerous cells.

Assay [2] deals with CD79a+ cells over CD79a- cells of a diffuse large B-cell lymphoma patient. Briefly: ex vivo selectivity of compounds to kill cancerous versus non-cancerous cells, excised lymph node of DLBCL patient (Example 8). In kind it is cell-based, human. As to conditions: fraction of live cancerous cells of live total cells relative to DMSO control; dissociated lymph node cells; <1 = selectively kills cancerous cells.
Procedure: Monolayers were incubated overnight (18 h). […] Unstained cells were considered non-cancerous cells.

For the compound `Sc1ncnc2nc[nH]c12` [6-mercaptopurine], the “value/selectivity determined according to the present invention” value in assay [1] worked out at 0.58.

In turn, `CC(C)C[C@H](NC(=O)[C@H](Cc1ccccc1)NC(=O)c1cnccn1)B(O)O` [bortezomib] returned a value/selectivity in assay [2] of 0.59. The “value/selectivity determined according to the present invention” value in assay [1] came to 0.50.

In turn, `Nc1nc(Cl)nc2c1ncn2[C@H]1C[C@H](O)[C@@H](CO)O1` [cladribine] came in with a value/selectivity in assay [2] of 0.73.
